Laboratory results published in US12624067B2, “Cyclic peptide, cell scaffold material, cell separating material, and medium” (FUJIFILM Corporation, priority 2019, dated 2026).
Where two headings read alike, the source gives them in different places. Numbered stars: 1 amine (or outer) side, 2 acyl side, 3 side chain; on linkers, the order of the positions; unused ones are H or OH. Bridge positions count the residues as written; N and C are the ends. Square brackets hold non-standard residues; d marks the D form. Peptide text beside a SMILES is read from it. hCys = N[C@@H](CCS)C(=O)O; Orn = NCCC[C@H](N)C(=O)O; Dab = NCC[C@H](N)C(=O)O; Dap = NC[C@H](N)C(=O)O; X1 = O=C(C[*:1])[*:2]; X2 = O=C(C[*:2])[*:1]

Tests used:
human integrin αvβ5 = human integrin αvβ5 (Homo sapiens, UniProt P06756+P18084); experiment: Evaluation of integrin binding property (surface plasmon resonance, Biacore 3000, immobilized cyclic peptide)
Chain of human integrin αvβ5 (P06756 31-889 limits assumed): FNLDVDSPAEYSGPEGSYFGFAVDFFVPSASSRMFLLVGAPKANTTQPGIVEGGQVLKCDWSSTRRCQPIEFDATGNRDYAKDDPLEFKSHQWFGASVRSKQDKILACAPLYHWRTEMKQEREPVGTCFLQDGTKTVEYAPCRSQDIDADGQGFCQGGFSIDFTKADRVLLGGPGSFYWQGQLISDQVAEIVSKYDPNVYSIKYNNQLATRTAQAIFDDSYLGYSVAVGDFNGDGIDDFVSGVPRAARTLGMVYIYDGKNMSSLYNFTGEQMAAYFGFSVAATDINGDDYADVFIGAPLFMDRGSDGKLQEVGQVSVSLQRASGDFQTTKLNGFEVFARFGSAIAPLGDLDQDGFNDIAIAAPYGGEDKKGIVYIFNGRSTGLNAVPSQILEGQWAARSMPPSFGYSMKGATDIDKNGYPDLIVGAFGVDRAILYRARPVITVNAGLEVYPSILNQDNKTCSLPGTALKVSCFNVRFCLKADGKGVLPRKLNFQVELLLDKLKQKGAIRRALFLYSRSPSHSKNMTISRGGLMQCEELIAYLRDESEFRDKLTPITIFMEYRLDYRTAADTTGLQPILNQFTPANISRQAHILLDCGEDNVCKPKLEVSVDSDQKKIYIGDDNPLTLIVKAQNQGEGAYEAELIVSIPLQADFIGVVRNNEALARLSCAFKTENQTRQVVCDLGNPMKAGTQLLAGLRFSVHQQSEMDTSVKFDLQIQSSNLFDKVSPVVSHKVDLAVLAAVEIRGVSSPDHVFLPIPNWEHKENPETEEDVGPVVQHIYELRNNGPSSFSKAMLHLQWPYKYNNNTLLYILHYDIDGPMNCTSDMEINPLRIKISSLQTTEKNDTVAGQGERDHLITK
Chain of human integrin αvβ5 (P06756 891-1048 partner limits assumed): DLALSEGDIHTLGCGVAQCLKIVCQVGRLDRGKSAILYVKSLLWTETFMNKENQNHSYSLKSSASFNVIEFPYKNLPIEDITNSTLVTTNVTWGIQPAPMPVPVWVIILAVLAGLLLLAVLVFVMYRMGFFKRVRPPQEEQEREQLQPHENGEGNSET
Chain of human integrin αvβ5 (P18084 24-799): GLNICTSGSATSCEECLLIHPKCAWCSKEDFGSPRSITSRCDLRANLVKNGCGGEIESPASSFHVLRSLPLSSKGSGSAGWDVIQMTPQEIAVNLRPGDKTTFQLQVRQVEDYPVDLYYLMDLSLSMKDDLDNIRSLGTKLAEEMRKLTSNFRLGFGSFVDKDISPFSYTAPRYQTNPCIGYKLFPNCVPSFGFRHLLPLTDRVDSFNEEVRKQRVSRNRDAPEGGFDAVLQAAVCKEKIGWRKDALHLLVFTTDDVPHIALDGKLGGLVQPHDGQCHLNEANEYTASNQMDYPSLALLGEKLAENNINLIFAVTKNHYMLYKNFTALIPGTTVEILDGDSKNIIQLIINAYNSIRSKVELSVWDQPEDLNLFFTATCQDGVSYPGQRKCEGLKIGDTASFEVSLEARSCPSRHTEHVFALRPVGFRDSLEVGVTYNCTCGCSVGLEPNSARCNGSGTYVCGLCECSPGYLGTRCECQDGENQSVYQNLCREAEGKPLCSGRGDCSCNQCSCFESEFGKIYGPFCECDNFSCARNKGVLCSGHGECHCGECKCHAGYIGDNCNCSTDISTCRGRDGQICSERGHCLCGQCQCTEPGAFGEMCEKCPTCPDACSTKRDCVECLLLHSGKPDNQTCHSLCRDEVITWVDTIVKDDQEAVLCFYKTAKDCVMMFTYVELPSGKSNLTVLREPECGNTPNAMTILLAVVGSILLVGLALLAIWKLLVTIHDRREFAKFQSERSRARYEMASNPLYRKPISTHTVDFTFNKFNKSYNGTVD
Experimental: A commercially available CM5 sensor chip (a carboxymethyl dextran introduction type, manufactured by GE Healthcare) was set in a surface plasmon resonance apparatus (product name: Biacore 3000, manufactured by GE Healthcare), the sensor was stabilized at a flow rate of 10 μL/min of a 4-(2-hydroxyethyl)-1-piperazineethanesulfonic acid (HEPES) buffer solution (20 mM HEPES-HCl, 150 mM NaCl, pH 7.4) for surface plasmon resonance (SPR), and 70 μL of a mixed aqueous solution of 0.2 M 1-(3-dimethylaminopropyl)-3-ethylcarbodiimide (EDC) and 0.04 M N-hydroxysuccinimide (NHS) was added thereto. Then, 300 μL of the sample solution of each of the above cyclic peptides diluted to 0.2 g/L with the HEPES buffer solution was supplied to the sensor chip, blocking treatment was subsequently carried out with an ethanolamine solution, and washing was carried out with a sodium hydroxide aqueous solution, whereby immobilization was carried out. However, only for the cyclic peptide 22, in which the number of lysine residues having an amino group as the immobilizing functional group was 1, the sample solution to be supplied to the sensor chip was set to 5,000 μL instead of 300 μL. Similarly; 70 μL of the mixed aqueous solution of 0.2 M EDC and 0.04 M NHS was added to another flow channel of the same sensor chip without immobilizing the sample, and then blocking treatment and washing treatment were carried out. Hereinafter, the obtained immobilization-treated sensor chip is referred to as an “immobilization-treated sensor chip A”.
After adding human integrin αvβ5 for 10 minutes at 25° C., which was diluted to 30 nM using a HEPES buffer solution to which magnesium chloride was added to 5 mM, in each flow channel of the immobilization-treated sensor chip A prepared in (1) above, the same HEPES buffer solution (containing 5 mM magnesium chloride) was allowed to flow as a running buffer for 30 minutes, and measurement was carried out with Biacore 3000.
Then, a regeneration treatment of removing human integrin αvβ5 was carried out by allowing a 0.5 M EDTA aqueous solution to flow through each flow channel for 10 minutes. Further, the above-described measurement process consisting of adding integrin for 10 minutes, allowing a running buffer to flow for 30 minutes, carrying out measurement with Biacore 3000, and carrying out regeneration treatment with 0.5 M EDTA aqueous solution was carried out in the same manner for 100 nM human integrin αvβ5, 300 nM human integrin αvβ5, and 1,000 nM human integrin αvβ5. Dissociation constant between the cyclic peptide and human integrin αvβ5 was calculated from the difference between the value measured by Biacore 3000 in the flow channel immobilized with the cyclic peptide and the value measured by Biacore 3000 in the flow channel unimmobilized with the cyclic peptide, in a case where each concentration of human integrin αvβ5 was allowed to flow; and the integrin binding property was evaluated according to the following evaluation standards. It is preferable that the evaluation result satisfies the evaluation standard A, B, or C.

[1] = Evaluation of molecule stability (alkali treatment, LC/MS residual rate); assay type: physicochemical; conditions: 500 μM peptide plus equivalent of 1 M sodium hydroxide, 15° C., 20 minutes, LC/MS peak area
Experimental: The molecule stability of the cyclic peptide was evaluated by analyzing the alkali-treated cyclic peptide aqueous solution by liquid chromatography mass spectroscopy (LC/MS).
The alkali treatment was carried out by the following method. A 500 μM cyclic peptide aqueous solution was prepared, an equivalent of 1 M sodium hydroxide aqueous solution was added to this aqueous solution, and the resultant mixture was incubated at 15° C. for 20 minutes to obtain an alkali-treated cyclic peptide aqueous solution. The cyclic peptide residual rate was calculated by setting the total area of all peaks of the cyclic peptide before alkali treatment in LC/MS to 100% and determining the proportion of the total area of all peaks in LC/MS of the alkali-treated cyclic peptide aqueous solution, and the molecule stability was evaluated according to the following evaluation standards. It is preferable that the evaluation result satisfies the evaluation standard A, B, or C.
The conditions of the LC/MS used for the evaluation of molecule stability were set as follows. • LC apparatus: Prominence series (pump, column oven, autosampler, detector) (manufactured by Shimadzu Corporation) • MS detector: LC/MS2010EV (manufactured by Shimadzu Corporation) • Column: Cadenza CD-C18, inner diameter 2.0 mm×length 250 mm, particle size: 3 μm (manufactured by Imtakt Corporation) • Eluent A: a solution (pH 3) containing 10 mM ammonium formate as a solute, where the solvent is 100% water. • Eluent B: a solution (pH 3) containing 10 mM ammonium formate as a solute, where the solvent is acetonitrile/water=90/10. • Flow rate: 0.2 mL/min • Injection volume: 4 μL • Gradient: 0% to 30%: Eluent B (0 to 30 minutes), 100%: Eluent B (30 to 40 minutes), 0%: Eluent B (40 to 60 minutes)(B indicates the eluent B) • Column temperature: 45° C. • Ionization method: electrospray ionization (ESI) positive, ESI negative

[2] = peptide immobilized on CM5 sensor chip, human integrin αvβ5 30-1,000 nM, 25° C., HEPES buffer with 5 mM magnesium chloride, read-out: Integrin binding property (dissociation constant)

Compound	Kd (human integrin αvβ5; [2])	Molecule stability (cyclic peptide residual rate) [1]	Kd (human integrin αvβ5)
CC[C@H](C)[C@@H]1NC(=O)CSCC[C@@H](C(=O)N[C@@H](CCCCN)C(=O)N[C@@H](CCCCN)C(=O)N[C@@H](CCCCN)C(=O)O)NC(=O)[C@H](Cc2ccccc2)NC(=O)[C@@H]2CCCCNC(=O)CSCC[C@H](NC1=O)C(=O)N[C@@H](CCCNC(=N)N)C(=O)NCC(=O)N[C@@H](CC(=O)O)C(=O)N2 [Cyclic peptide 11] ({CH2CO}-I[hCys]RGDKF[hCys]KKK-OH; linker 2-6 via X1; thioether N-8)	< 50 nM	A (The residual rate of the cyclic peptide is 70% or more.)	
CC[C@H](C)[C@@H]1NC(=O)CSC[C@@H](C(=O)N[C@@H](CCCCN)C(=O)N[C@@H](CCCCN)C(=O)N[C@@H](CCCCN)C(=O)O)NC(=O)[C@H](Cc2ccccc2)NC(=O)[C@@H]2CCNC(=O)CSC[C@H](NC1=O)C(=O)N[C@@H](CCCNC(=N)N)C(=O)NCC(=O)N[C@@H](CC(=O)O)C(=O)N2 [Cyclic peptide 8] ({CH2CO}-ICRGD[Dab]FCKKK-OH; linker 2-6 via X1; thioether N-8)	< 50 nM	B (The residual rate of the cyclic peptide is 50% or more and less than 70%.)	
CC[C@H](C)[C@@H]1NC(=O)CSCC[C@@H](C(=O)N[C@@H](CCCCN)C(=O)N[C@@H](CCCCN)C(=O)N[C@@H](CCCCN)C(=O)O)NC(=O)[C@H](Cc2ccccc2)NC(=O)[C@@H]2CSCC(=O)NC[C@H](NC1=O)C(=O)N[C@@H](CCCNC(=N)N)C(=O)NCC(=O)N[C@@H](CC(=O)O)C(=O)N2 [Cyclic peptide 14] ({CH2CO}-I[Dap]RGDCF[hCys]KKK-OH; linker 2-6 via X2; thioether N-8)	< 50 nM	A (The residual rate of the cyclic peptide is 70% or more.)	
CC[C@H](C)[C@@H]1NC(=O)CSCC[C@@H](C(=O)N[C@@H](CCCCN)C(=O)N[C@@H](CCCCN)C(=O)N[C@@H](CCCCN)C(=O)O)NC(=O)[C@H](Cc2ccccc2)NC(=O)[C@@H]2CCSCC(=O)NC[C@H](NC1=O)C(=O)N[C@@H](CCCNC(=N)N)C(=O)NCC(=O)N[C@@H](CC(=O)O)C(=O)N2 [Cyclic peptide 1] ({CH2CO}-I[Dap]RGD[hCys]F[hCys]KKK-OH; linker 2-6 via X2; thioether N-8)	50 to 100 nM	A (The residual rate of the cyclic peptide is 70% or more.)	
C[C@H](N)C(=O)N[C@H]1CSSC[C@@H](C(=O)NCC(=O)N[C@@H](CCCCN)C(=O)N[C@@H](CCCCN)C(=O)N[C@@H](CCCCN)C(=O)O)NC(=O)[C@H](Cc2ccccc2)NC(=O)[C@@H]2CSSC[C@H](NC(=O)[C@H](CC(=O)O)NC1=O)C(=O)N[C@@H](CCCNC(=N)N)C(=O)NCC(=O)N[C@@H](CC(=O)O)C(=O)N2 [Cyclic peptide 49, ACDCRGDCFCGKKK, reference compound] (H-ACDCRGDCFCGKKK-OH; disulfide 2-10, 4-8)		D (The residual rate of the cyclic peptide is less than 30%.)	< 50 nM

More lines, main results first:

Kd (human integrin αvβ5; [2])	Compound	Molecule stability (cyclic peptide residual rate) [1]	Kd (human integrin αvβ5)
< 50 nM	N=C(N)NCCC[C@@H]1NC(=O)[C@@H]2CCSCC(=O)NCCCC[C@H](NC(=O)[C@H](CC(=O)O)NC(=O)CNC1=O)C(=O)N[C@@H](Cc1ccccc1)C(=O)N[C@H](C(=O)N[C@@H](CCCCN)C(=O)N[C@@H](CCCCN)C(=O)N[C@@H](CCCCN)C(=O)O)CCSCC(=O)N[C@@H](CC(=O)O)C(=O)N2 [Cyclic peptide 29] ({CH2CO}-D[hCys]RGDKF[hCys]KKK-OH; linker 2-6 via X1; thioether N-8)	A (The residual rate of the cyclic peptide is 70% or more.)	
100 to 200 nM	CC[C@H](C)[C@@H]1NC(=O)CSCC[C@@H](C(=O)N[C@@H](CCCCN)C(=O)N[C@@H](CCCCN)C(=O)N[C@@H](CCCCN)C(=O)O)NC(=O)[C@H](CCCNC(=N)N)NC(=O)[C@H](Cc2ccccc2)NC(=O)[C@@H]2CCCCNC(=O)CSCC[C@H](NC1=O)C(=O)N[C@@H](CCCNC(=N)N)C(=O)NCC(=O)N[C@@H](CC(=O)O)C(=O)N2 [Cyclic peptide 33] ({CH2CO}-I[hCys]RGDKFR[hCys]KKK-OH; linker 2-6 via X1; thioether N-9)	A (The residual rate of the cyclic peptide is 70% or more.)	
< 50 nM	N=C(N)NCCC[C@@H]1NC(=O)[C@@H]2CCSCC(=O)NCCC[C@H](NC(=O)[C@H](CC(=O)O)NC(=O)CNC1=O)C(=O)N[C@@H](Cc1ccccc1)C(=O)N[C@H](C(=O)N[C@@H](CCCCN)C(=O)N[C@@H](CCCCN)C(=O)N[C@@H](CCCCN)C(=O)O)CCSCC(=O)N[C@@H](CCC(=O)O)C(=O)N2 [Cyclic peptide 43] ({CH2CO}-E[hCys]RGD[Orn]F[hCys]KKK-OH; linker 2-6 via X1; thioether N-8)	A (The residual rate of the cyclic peptide is 70% or more.)	
< 50 nM	N=C(N)NCCC[C@@H]1NC(=O)[C@@H]2CCCNC(=O)CSCC[C@H](NC(=O)[C@H](CC(=O)O)NC(=O)CNC1=O)C(=O)N[C@@H](Cc1ccccc1)C(=O)N[C@H](C(=O)N[C@@H](CCCCN)C(=O)N[C@@H](CCCCN)C(=O)N[C@@H](CCCCN)C(=O)O)CCSCC(=O)N[C@@H](CC(=O)O)C(=O)N2 [Cyclic peptide 39] ({CH2CO}-D[Orn]RGD[hCys]F[hCys]KKK-OH; linker 2-6 via X2; thioether N-8)	A (The residual rate of the cyclic peptide is 70% or more.)	
< 50 nM	CC(C)C[C@@H]1NC(=O)CSCC[C@@H](C(=O)N[C@@H](CCCCN)C(=O)N[C@@H](CCCCN)C(=O)N[C@@H](CCCCN)C(=O)O)NC(=O)[C@H](Cc2ccccc2)NC(=O)[C@@H]2CCCCNC(=O)CSCC[C@H](NC1=O)C(=O)N[C@@H](CCCNC(=N)N)C(=O)NCC(=O)N[C@@H](CC(=O)O)C(=O)N2 [Cyclic peptide 26] ({CH2CO}-L[hCys]RGDKF[hCys]KKK-OH; linker 2-6 via X1; thioether N-8)	A (The residual rate of the cyclic peptide is 70% or more.)	
50 to 100 nM	C[C@H](N)C(=O)N[C@H]1CCSCC(=O)NCCCC[C@@H](C(=O)N[C@@H](CCCCN)C(=O)N[C@@H](CCCCN)C(=O)N[C@@H](CCCCN)C(=O)O)NC(=O)[C@H](Cc2ccccc2)NC(=O)[C@@H]2CCCCNC(=O)CSCC[C@H](NC1=O)C(=O)N[C@@H](CCCNC(=N)N)C(=O)NCC(=O)N[C@@H](CC(=O)O)C(=O)N2 [Cyclic peptide 36] (H-A[hCys][hCys]RGDKFKKKK-OH; linker 2-9, 3-7 via X1)	A (The residual rate of the cyclic peptide is 70% or more.)	
< 50 nM	CC[C@H](C)[C@@H]1NC(=O)CSCC[C@@H](C(=O)N[C@@H](CCCCN)C(=O)N[C@@H](CCCCN)C(=O)N[C@@H](CCCCN)C(=O)O)NC(=O)[C@H](Cc2ccccc2)NC(=O)[C@@H]2CSCC(=O)NCCC[C@H](NC1=O)C(=O)N[C@@H](CCCNC(=N)N)C(=O)NCC(=O)N[C@@H](CC(=O)O)C(=O)N2 [Cyclic peptide 16] ({CH2CO}-I[Orn]RGDCF[hCys]KKK-OH; linker 2-6 via X2; thioether N-8)	A (The residual rate of the cyclic peptide is 70% or more.)	
